Test results taken from patent US9155804B2, “Contrast enhancement agents and method of use thereof” (General Electric Company, priority 2012, dated 2015).

Columns and labels:
[1] = system: MATBIII breast cancer cells; experiment: Dynamic contrast enhanced MR tumor imaging in MATBIII tumor bearing mice; type: in vivo, SCID mice; details: DCE MR, dose 0.2 mmol/kg Gd, Fe, mammary MBIII rodent tumor model
Protocol: Cell Preparation: MATBIII breast cells (available from ATCC®) were trypsinized using 1× trypsin-EDTA. The cells were washed using IX phosphate buffered saline (PBS) and aliquots of 2×10^6 cells were made in 1×PBS (100 uL). Prior to injection into the subject, 50 μL of basement membrane matrix (Matrigel®, BD Biosciences) was added to each aliquot.
Tumor Induction: All procedures involving animals were completed under protocols approved by the GE Global Research Institutional Animal Care and Use Committee. Female, 5-7 weeks old, SCID mice (Charles River Laboratories) were briefly anesthetized with 2% isoflurane and injected with 1×10^6 MATBIII breast cancer cells in 1×PBS (100 μL) and Matrigel SC to their left flank. The animals were monitored for 7 days post tumor cell injections at which point, precontrast agent MR images of the resulting lesions, typically 1 cm in diameter, were collected using the sequences described below.

[2] = Hydrodynamic size assay (dynamic light scattering); type: physicochemical
Protocol: The dilution was carried out to yield approximately 20,000 counts per second during the DLS measurement and the sample was allowed to equilibrate for 10 minutes in the instrument prior to data collection.

Agent size (hydrodynamic diameter) [2]: Magnevist - Gd (1 nm)
Structure (SMILES): CNC[C@H](O)[C@@H](O)[C@H](O)[C@H](O)CO.CNC[C@H](O)[C@@H](O)[C@H](O)[C@H](O)CO.O=C([O-])CN(CCN(CC(=O)[O-])CC(=O)O)CCN(CC(=O)[O-])CC(=O)O.[Gd+3] [Magnevist - Gd]
Tumor-to-muscle signal enhancement ratio (Tumor: Muscle), Average [1]: 3.6
